# Assay results published in patent publication US20230295234A1, “ANTIMICROBIAL PEPTIDOMIMETICS” (SPEXIS AG, priority 2020, published 2023).
# Bridge positions count the residues as written; N and C are the ends. Square brackets hold non-standard residues; d marks the D form. Peptide text beside a SMILES is read from it. Gly(N-2-aminoethyl) = NCCNCC(=O)O; Hyp = O=C(O)[C@@H]1C[C@@H](O)CN1; Pen = CC(C)(S)[C@H](N)C(=O)O; dDab = NCC[C@@H](N)C(=O)O; Dab = NCC[C@H](N)C(=O)O
# Assays:
# [1] = tested on: Escherichia coli ATCC 25922; conditions: ATCC 25922
# In short: (§1)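 First, bacterial colonies are suspended in saline and adjusted to 0.5 McFarland. Next, the suspension is diluted into cation-adjusted Mueller-Hinton II broth (approx. 5×10^5 CFU/mL). Finally, it is added to two-fold serially diluted peptide, with polysorbate 80 at 0.002% final.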
# [2] = tested on: Escherichia coli MCR-1 Af 45; conditions: MCR-1 Af 45
# In short: as §1
# [3] = tested on: Klebsiella pneumoniae SSI3010; conditions: SSI3010
# In short: as §1
# [4] = tested on: human red blood cells (hRBC); assay: Hemolysis of human red blood cells; type: cell-based; conditions: red cells of human, 1 h
# In short: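 Percent hemolysis is OD540 of peptide-treated supernatant relative to water-lysed cells. Each peptide was tested at 200 μg/mL against 20% (v/v) washed human erythrocytes. Incubation was 1 h at 37 °C, 300 rpm.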
Compound,Escherichia coli ATCC 25922 MIC [1] [µg/mL],Escherichia coli MCR-1 Af 45 MIC [2] [µg/mL],Klebsiella pneumoniae SSI3010 MIC [3] [µg/mL],Hemolysis at 0.2 g/L [4] [%]
"CC[C@H](C)[C@H](NC(=O)[C@@H]1C[C@@H](O)CN1C(=O)[C@@H](NC(=O)[C@@H]1C[C@@H](O)CN1C(=O)[C@H](CCCCN)NC(=O)[C@@H](N)CCCCN)C(C)C)C(=O)N[C@H](C(=O)N[C@@H](Cc1ccc(O)cc1)C(=O)N[C@@H]1C(=O)N[C@@H](CC(N)=O)C(=O)N[C@@H](CCCNC(=N)N)C(=O)N[C@@H](CCN)C(=O)N[C@@H]([C@@H](C)O)C(=O)N[C@H](CCN)C(=O)N[C@@H](CCCCN)C(=O)N[C@H](C(=O)N[C@@H](CCN)C(=O)N[C@@H](CCCN)C(=O)N[C@@H](Cc2ccc(O)cc2)C(=O)O)CSSC1(C)C)[C@@H](C)O [Example 124, Lys-Lys-Hyp-Val-Hyp-Ile-Thr-Tyr-Pen-Asn-Arg-Dab-Thr-^DDab-Lys-Cys-Dab-Orn-Tyr] (HELM PEPTIDE1{K.K.[Hyp].V.[Hyp].I.T.Y.[Pen].N.R.[Dab].T.[NCC[C@@H](N[*:1])C(=O)[*:2]].K.C.[Dab].[Orn].Y}$PEPTIDE1,PEPTIDE1,9:R3-16:R3$$$V2.0; N-terminus and C-terminus assumed)",0.125,0.0625,0.25,0
"CC[C@H](C)[C@H](NC(=O)CN(CCN)C(=O)[C@@H](NC(=O)[C@@H]1C[C@@H](O)CN1C(=O)[C@H](CCCCN)NC(=O)[C@@H](N)CCCCN)C(C)C)C(=O)N[C@H](C(=O)N[C@@H](Cc1ccc(O)cc1)C(=O)N[C@@H]1C(=O)N[C@@H](CC(N)=O)C(=O)N[C@@H](CCCNC(=N)N)C(=O)N[C@@H](CCN)C(=O)N[C@@H]([C@@H](C)O)C(=O)N[C@H](CCN)C(=O)N[C@@H](CCCCN)C(=O)N[C@H](C(=O)N[C@@H](CCN)C(=O)N[C@@H](CCCNC(=N)N)C(=O)N[C@@H](Cc2ccc(O)cc2)C(=O)O)CSSC1(C)C)[C@@H](C)O [Example 126, Lys-Lys-Hyp-Val-Ndab-Ile-Thr-Tyr-Pen-Asn-Arg-Dab-Thr-^DDab-Lys-Cys-Dab-Arg-Tyr] (HELM PEPTIDE1{K.K.[Hyp].V.[NCCN(CC(=O)[*:2])[*:1]].I.T.Y.[Pen].N.R.[Dab].T.[NCC[C@@H](N[*:1])C(=O)[*:2]].K.C.[Dab].R.Y}$PEPTIDE1,PEPTIDE1,9:R3-16:R3$$$V2.0)",≤0.03125,≤0.03125,0.0625,0
"CC[C@H](C)[C@H](NC(=O)[C@@H]1C[C@@H](O)CN1C(=O)[C@@H](NC(=O)[C@@H]1C[C@@H](O)CN1C(=O)[C@H](CCCCN)NC(=O)[C@@H](N)CCCCN)C(C)C)C(=O)N[C@H](C(=O)N[C@@H](Cc1ccc(O)cc1)C(=O)N[C@@H]1C(=O)N[C@@H](CC(N)=O)C(=O)N[C@@H](CCCNC(=N)N)C(=O)N[C@@H](CCN)C(=O)N[C@@H]([C@@H](C)O)C(=O)N[C@H](CCN)C(=O)N[C@@H](CCCCN)C(=O)N[C@H](C(=O)N[C@@H](Cc2ccc(O)cc2)C(=O)N[C@@H](CCCNC(=N)N)C(=O)N[C@@H](Cc2ccc(O)cc2)C(=O)O)CSSC1(C)C)[C@@H](C)O [Example 128, Lys-Lys-Hyp-Val-Hyp-Ile-Thr-Tyr-Pen-Asn-Arg-Dab-Thr-^DDab-Lys-Cys-Tyr-Arg-Tyr] (HELM PEPTIDE1{K.K.[Hyp].V.[Hyp].I.T.Y.[Pen].N.R.[Dab].T.[NCC[C@@H](N[*:1])C(=O)[*:2]].K.C.Y.R.Y}$PEPTIDE1,PEPTIDE1,9:R3-16:R3$$$V2.0; N-terminus and C-terminus assumed)",0.125,0.0625,0.125,0
"CC[C@H](C)[C@H](NC(=O)CN(CCN)C(=O)[C@@H](NC(=O)[C@@H]1C[C@@H](O)CN1C(=O)[C@H](CCCCN)NC(=O)[C@@H](N)CCCCN)C(C)C)C(=O)N[C@H](C(=O)N[C@@H](Cc1ccc(O)cc1)C(=O)N[C@@H]1C(=O)N[C@@H](CC(N)=O)C(=O)N[C@@H](CCCNC(=N)N)C(=O)N[C@@H](CCN)C(=O)N[C@@H]([C@@H](C)O)C(=O)N[C@H](CCN)C(=O)N[C@@H](CCCCN)C(=O)N[C@H](C(=O)N[C@@H](Cc2ccc(O)cc2)C(=O)N[C@@H](CCCNC(=N)N)C(=O)N[C@@H](Cc2ccc(O)cc2)C(=O)O)CSSC1(C)C)[C@@H](C)O [Example 129, Lys-Lys-Hyp-Val-Ndab-Ile-Thr-Tyr-Pen-Asn-Arg-Dab-Thr-^DDab-Lys-Cys-Tyr-Arg-Tyr] (HELM PEPTIDE1{K.K.[Hyp].V.[NCCN(CC(=O)[*:2])[*:1]].I.T.Y.[Pen].N.R.[Dab].T.[NCC[C@@H](N[*:1])C(=O)[*:2]].K.C.Y.R.Y}$PEPTIDE1,PEPTIDE1,9:R3-16:R3$$$V2.0)",0.25,0.0625,0.125,0
"CC[C@H](C)[C@H](NC(=O)CN(CCN)C(=O)[C@@H](NC(=O)[C@@H]1C[C@@H](O)CN1C(=O)[C@H](CCCCN)NC(=O)CNCCN)C(C)C)C(=O)N[C@H](C(=O)N[C@@H](Cc1ccc(O)cc1)C(=O)N[C@@H]1C(=O)N[C@@H](CC(N)=O)C(=O)N[C@@H](CCCNC(=N)N)C(=O)N[C@@H](CCN)C(=O)N[C@@H]([C@@H](C)O)C(=O)N[C@H](CCN)C(=O)N[C@@H](CCCCN)C(=O)N[C@H](C(=O)N[C@@H](Cc2ccc(O)cc2)C(=O)N[C@@H](CCCNC(=N)N)C(=O)N[C@@H](Cc2ccc(O)cc2)C(=O)O)CSSC1(C)C)[C@@H](C)O [Example 130, Ndab-Lys-Hyp-Val-Ndab-Ile-Thr-Tyr-Pen-Asn-Arg-Dab-Thr-^DDab-Lys-Cys-Tyr-Arg-Tyr] (H-[Gly(N-2-aminoethyl)]K[Hyp]V[Gly(N-2-aminoethyl)]ITY[Pen]NR[Dab]T[dDab]KCYRY-OH; disulfide 9-16)",0.25,0.125,0.25,0

# More lines, main results first:
Escherichia coli ATCC 25922 MIC [1] [µg/mL],Escherichia coli MCR-1 Af 45 MIC [2] [µg/mL],Klebsiella pneumoniae SSI3010 MIC [3] [µg/mL],Compound,Hemolysis at 0.2 g/L [4] [%]
≤0.03125,0.0625,0.0625,"CC[C@H](C)[C@H](NC(=O)[C@@H]1C[C@@H](N)CN1C(=O)[C@@H](NC(=O)[C@@H]1C[C@@H](O)CN1C(=O)[C@H](CCCCN)NC(=O)[C@@H](N)CCCCN)C(C)C)C(=O)N[C@H](C(=O)N[C@@H](Cc1ccc(O)cc1)C(=O)N[C@@H]1C(=O)N[C@@H](CC(N)=O)C(=O)N[C@@H](CCCNC(=N)N)C(=O)N[C@@H](CCN)C(=O)N[C@@H]([C@@H](C)O)C(=O)N[C@H](CCN)C(=O)N[C@@H](CCCCN)C(=O)N[C@H](C(=O)N[C@@H](CCN)C(=O)N[C@@H](CCCNC(=N)N)C(=O)N[C@@H](Cc2ccc(O)cc2)C(=O)O)CSSC1(C)C)[C@@H](C)O [Example 125, Lys-Lys-Hyp-Val-Pro((4R)NH2)-Ile-Thr-Tyr-Pen-Asn-Arg-Dab-Thr-^DDab-Lys-Cys-Dab-Arg-Tyr] (HELM PEPTIDE1{K.K.[Hyp].V.[N[C@@H]1C[C@@H](C(=O)[*:2])N([*:1])C1].I.T.Y.[Pen].N.R.[Dab].T.[NCC[C@@H](N[*:1])C(=O)[*:2]].K.C.[Dab].R.Y}$PEPTIDE1,PEPTIDE1,9:R3-16:R3$$$V2.0)",0
0.125,0.125,0.25,"CC[C@H](C)[C@H](NC(=O)[C@@H](NC(=O)[C@@H]1CCCN1C(=O)[C@@H](NC(=O)[C@@H]1C[C@@H](N)CN1C(=O)[C@H](CCCCN)NC(=O)[C@@H](N)CCCCN)C(C)C)[C@@H](C)CC)C(=O)N[C@@H](Cc1ccc(O)cc1)C(=O)N[C@H]1CCNC(=O)CC[C@@H](C(=O)N[C@@H](CCN)C(=O)N[C@@H](CCCNC(=N)N)C(=O)N[C@@H](Cc2ccc(O)cc2)C(=O)O)NC(=O)[C@H](CCCCN)NC(=O)[C@@H](CCN)NC(=O)[C@H]([C@@H](C)O)NC(=O)[C@H](CCN)NC(=O)[C@H](CCCNC(=N)N)NC(=O)[C@H](CC(N)=O)NC1=O [Example 131, Lys-Lys-Pro((4R)NH2)-Val-Pro-Ile-Ile-Tyr-Dab-Asn-Arg-Dab-Thr-^DDab-Lys-Glu-Dab-Arg-Tyr] (HELM PEPTIDE1{K.K.[N[C@@H]1C[C@@H](C(=O)[*:2])N([*:1])C1].V.P.I.I.Y.[Dab].N.R.[Dab].T.[NCC[C@@H](N[*:1])C(=O)[*:2]].K.E.[Dab].R.Y}$PEPTIDE1,PEPTIDE1,9:R3-16:R3$$$V2.0)",0
0.0625,0.0625,0.0625,"CC[C@H](C)[C@H](NC(=O)[C@@H](NC(=O)[C@@H]1CCCN1C(=O)[C@@H](NC(=O)[C@@H]1C[C@@H](N)CN1C(=O)[C@H](CCCCN)NC(=O)[C@@H](N)CCCCN)C(C)C)[C@@H](C)CC)C(=O)N[C@@H](Cc1ccc(O)cc1)C(=O)N[C@H]1CC(=O)NCC[C@@H](C(=O)N[C@@H](CCN)C(=O)N[C@@H](CCCNC(=N)N)C(=O)N[C@@H](Cc2ccc(O)cc2)C(=O)O)NC(=O)[C@H](CCCCN)NC(=O)[C@@H](CCN)NC(=O)[C@H]([C@@H](C)O)NC(=O)[C@H](CCN)NC(=O)[C@H](CCCNC(=N)N)NC(=O)[C@H](CC(N)=O)NC1=O [Example 132] (HELM PEPTIDE1{K.K.[N[C@@H]1C[C@@H](C(=O)[*:2])N([*:1])C1].V.P.I.I.Y.D.N.R.[Dab].T.[NCC[C@@H](N[*:1])C(=O)[*:2]].K.[Dab].[Dab].R.Y}$PEPTIDE1,PEPTIDE1,9:R3-16:R3$$$V2.0)",0
